Assays:
[1] = tested on: hBM-MSCs; test: Senescence-associated β-galactosidase (SA-β-gal) staining, oxidative stress-induced senescence; type: cell-based, human; conditions: double time 200 μM H2O2 treated hBM-MSCs (40% without treatment); Lico D 1 μg/mL or ascorbic acid 500 μM for 72 h (FIG. 2C)
Procedure: (§1) H2O2 was used to induce oxidative stress-induced cell cycle arrest and senescence. Briefly, the cells were exposed to 200 μM H2O2 for 2 h and cultured for 2 d without H2O2. In the second treatment with H2O2, the cells were split 1:3, exposed to 200 μM H2O2 for 2 h, and cultured with either normal media (control), Lico D (1 μg/mL), ascorbic acid (500 μM AA; a positive control), or the compound C (0.5 μM; AMPK inhibitor) for 72 h. Cellular senescence was confirmed by SA-β-gal assay and Western blotting as described below.
Senescence-associated β-galactosidase positive cells were identified using an SA-β-gal assay kit (Cell Signaling Technology, Danvers, Mass., USA) according to the manufacturer's instructions. Briefly, after 72 h of treatment, cells were washed with phosphate-buffered saline (PBS) and fixed with 1× fixative for 10-15 min at room temperature. The β-galactosidase staining solution (pH 6.0) was added to the plates and incubated overnight in a dry incubator at 37° C. without CO2. The next day, the β-Gal positive cells were observed under a light microscope (Nikon Eclipse TS100; Tokyo, Japan) and captured using a Canon i-Solution IMTcam3 digital camera (Tokyo, Japan).

[2] = tested on: LC3 II, BECN1 and SQSTM1; test: Immunoblotting of autophagy markers in heart tissue of D-Gal induced aging mice; type: in vivo, C57BL/6 mice; conditions: Lico D 0.5 mg/kg/day i.p. vs D-Gal-treated mice (FIGS. 8A-8D)
Procedure: (§2) Total proteins were extracted with RIPA (radioimmunoprecipitation) lysis buffer system containing phenylmethylsulfonyl fluoride (PMSF), sodium orthovanadate (Na3VO4), and protease inhibitor cocktail (Santa Cruz Biotechnology) at 4° C. for 30 min, and the samples were centrifuged (spun down) at 16,000×g for 20 min. The total protein concentration was quantified using the Pierce BCA Protein Assay Kit (Thermo Fisher Scientific). Proteins (30-50 μg) were loaded and separated via sodium dodecyl sulphate-polyacrylamide gel electrophoresis (SDS-PAGE) gel electrophoresis, followed by blotting on a PVDF membrane (GE Healthcare, Germany). The membranes were blocked with 1% blocking solution containing non-fat dry milk in TBST for 1 h 30 min at RT to prevent non-specific binding of primary antibodies. Subsequently, the membranes were incubated overnight at 4° C. with the corresponding primary antibodies. Secondary antibodies were conjugated with horseradish peroxidase and visualized using an enhanced chemiluminescence detection kit (GE Healthcare). […]
(§3) Six-week-old male C57BL/6 mice (weighing 22±2 g) were purchased from Samtako Bio Korea Co., Ltd. (Osan, Gyeonggi, Korea) and maintained at 23-25° C. under a 12-h light and 12-h dark cycle with free access to food and water in a pathogen-free facility. […] Body weight was measured every week until the end of the experiment. […]

[3] = tested on: p53 and p21; test: Immunoblotting of senescence markers in heart and hippocampus tissues of D-Gal induced aging mice; type: in vivo, C57BL/6 mice
Procedure: as §2, §3

[4] = tested on: hBM-MSCs; test: Detection of intracellular ROS (DCFH-DA); type: cell-based, human; conditions: hBM-MSCs pretreated 1 μg/mL 12 h, H2O2 0.7 mM 1 h, vs H2O2 alone (FIGS. 1C, 1D)
Procedure: (§4) To quantify the production of intracellular ROS, we used cell permeable substrate 2′,7′-dichlorofluorescin diacetate (DCFH-DA), which can be converted to highly detectable fluorescent 2′,7′-dichlorofluorescein upon oxidation. The cells were cultured in 12-well plates and 96-well plates for 24 h. After 24 h of culture, the cells were treated with 1 μg/mL of Lico D for 12 h and incubated with 20 μM DCFH-DA for 30 min. The cells were then washed with a phosphate-buffered saline (PBS) solution and incubated with H2O2 (0.7 mM) for 1 h at 37° C. The cells were then fixed with 4% paraformaldehyde at room temperature (RT) for 15 min and the nuclei were stained with Hoechst. Then, the cells were observed under a fluorescent microscope (Nikon Eclipse Ti2; Japan), and the images were captured (Nikon DS-Ri2; Japan) and analyzed using the Image J software. To analyze the apoptotic markers, the cells were pretreated with 1 μg/mL of Lico D followed by incubation with H2O2 (0.7 mM) for 1 h at 37° C., and then the proteins were isolated as described below.

[5] = tested on: AMPK; test: Immunoblotting of AMPK activation, oxidative stress-induced senescence; type: cell-based, human
Procedure: as §1
as §2, with “antibodies.” for “antibodies. Subsequently, the membranes were incubated overnight at 4° C. with the corresponding primary antibodies. Secondary antibodies were conjugated with horseradish peroxidase and visualized using an enhanced chemiluminescence detection kit (GE Healthcare).”

[6] = tested on: AMPK; test: Immunoblotting of AMPK activation in heart and hippocampus tissues of D-Gal induced aging mice; type: in vivo, C57BL/6 mice
Procedure: as §2, §3

[7] = tested on: LC3, BECN1, SQSTM1; test: Immunoblotting of autophagy markers, oxidative stress-induced senescence; type: cell-based, human
Procedure: as §1
Total proteins were extracted with RIPA (radioimmunoprecipitation) lysis buffer system containing phenylmethylsulfonyl fluoride (PMSF), sodium orthovanadate (Na3VO4), and protease inhibitor cocktail (Santa Cruz Biotechnology) at 4° C. for 30 min, and the samples were centrifuged (spun down) at 16,000×g for 20 min. The total protein concentration was quantified using the Pierce BCA Protein Assay Kit (Thermo Fisher Scientific). Proteins (30-50 μg) were loaded and separated via sodium dodecyl sulphate-polyacrylamide gel electrophoresis (SDS-PAGE) gel electrophoresis, followed by blotting on a PVDF membrane (GE Healthcare, Germany). The membranes were blocked with 1% blocking solution containing non-fat dry milk in TBST for 1 h 30 min at RT to prevent non-specific binding of primary antibodies. Subsequently, the membranes were incubated overnight at 4° C. with the corresponding primary antibodies. Secondary antibodies were conjugated with horseradish peroxidase and visualized using an enhanced chemiluminescence detection kit (GE Healthcare). Densitometry analysis was performed using the ImageJ software.

[8] = tested on: hBM-MSCs; test: MTT cell viability assay (protective effect against H2O2); type: cell-based, human; conditions: hBM-MSCs pre-treated with 1 μg/mL for 12 h, then H2O2 0-1 mM for 1 h (FIG. 1B)
Procedure: (§5) Human bone marrow derived mesenchymal stem cells (hBM-MSCs) were acquired from Cell Engineering for Origin (CEFO), Seoul, Korea. The cells were free from bacterial, viral, and mycoplasmal contamination. […] The cells were grown in Dulbecco's modified Eagle medium (DMEM) (Gibco, Life Technologies, Grand Island, N.Y., USA) supplemented with 10% FBS (Gibco, Life Technologies, USA), L-glutamine, and 1% penicillin/streptomycin solution (Lonza, Walkersville, Md., USA). The cells were manipulated under sterile conditions in a humidified incubator at 37° C. with 5% CO2 and 95% air. The cells were subcultured as soon as they reached confluence. The cells were serially monitored under bright field microscopy (Nikon Eclipse TS100; Tokyo, Japan), and the media was changed every 3 d.
(§6) The cytotoxic and protective effects of Lico D in hBM-MSCs were determined using the methylthiazolyldiphenyl-tetrazolium bromide (MTT) test, according to the manufacturer's instructions. To check the cytotoxic effect, hBM-MSCs were grown in a 96-well plate at a density of 8×10^3 cells per well. […] Cell viability was assessed using a spectrophotometer (Multiskan FC, Thermo Fisher Scientific). […] Following H2O2 treatment, cells were treated with MTT solution for 2 h, and cell viability was evaluated.

[9] = tested on: RAGE; test: qRT-PCR of RAGE in D-Gal induced aging mice; type: in vivo, C57BL/6 mice; conditions: hippocampus, Lico D 0.5 mg/kg/day i.p. vs D-Gal treated mice (FIG. 5C)
Procedure: (§7) Six-week-old male C57BL/6 mice (weighing 22±2 g) were purchased from Samtako Bio Korea Co., Ltd. (Osan, Gyeonggi, Korea) and maintained at 23-25° C. under a 12-h light and 12-h dark cycle with free access to food and water in a pathogen-free facility. All animal experiments were approved by the Institutional Animal Care and Use Committee of Chosun University (CIACUC2020-S0009). After a week of acclimation, the animals were randomly divided into three groups (four mice per group): normal control group (PBS alone), D-Galactose model group (150 mg/kg/day), and D-Galactose +Lico D (0.5 mg/kg/day). The mice were intraperitoneally injected with either PBS or D-Gal for 10 weeks and from the third week onwards, the mice were intraperitoneally injected with Lico D for 8 weeks (FIG. 5A). Body weight was measured every week until the end of the experiment. Thereafter, the MWM (Morris water maze) test was performed for one week.
RNAisoPlus (Takara) was used to isolate total RNA from the hippocampus and heart tissues. Total RNA (2.5 μg) was then reverse-transcribed using PrimescriptTM II 1st strand cDNA synthesis kit (Takara) and quantified using the Power SYBR Green PCR Master mix (Applied BioSystems). To amplify β-actin and RAGE, the mouse primers in Table 1 below were used. […]

[10] = tested on: p53 and cleaved caspase 3; test: Immunoblotting of apoptotic markers after H2O2; type: cell-based, human; conditions: hBM-MSCs pretreated 1 μg/mL, H2O2 0.7 mM 1 h, vs H2O2 alone (FIG. 1E)
Procedure: as §4, with “To analyze the apoptotic markers, the cells were pretreated with 1 μg/mL of Lico D followed by incubation with H2O2 (0.7 mM) for 1 h at 37° C., and then the proteins were isolated as described below.” left out
Total proteins were extracted with RIPA (radioimmunoprecipitation) lysis buffer system containing phenylmethylsulfonyl fluoride (PMSF), sodium orthovanadate (Na3VO4), and protease inhibitor cocktail (Santa Cruz Biotechnology) at 4° C. for 30 min, and the samples were centrifuged (spun down) at 16,000×g for 20 min. The total protein concentration was quantified using the Pierce BCA Protein Assay Kit (Thermo Fisher Scientific). […]

[11] = tested on: human melanoma, oral squamous cell carcinoma and lung adenocarcinoma; conditions: previously reported; cited from earlier work
[12] = tested on: D-Gal induced aging mice; test: Morris water maze (MWM) test in D-Gal induced aging mice; type: in vivo, C57BL/6 mice
Procedure: as §7

[13] = Body weight in D-Gal induced aging mice; type: in vivo, C57BL/6 mice; conditions: D-Gal 150 mg/kg/day i.p. 10 weeks, Lico D 0.5 mg/kg/day i.p. 8 weeks, measured weekly (FIG. 5B)
Procedure: as §7

[14] = tested on: hBM-MSCs; test: MTT cell viability assay (cytotoxic effect); type: cell-based, human; conditions: Lico D 0-8 μg/mL for 12 h, MTT (FIG. 1A)
Procedure: as §5, §6

[15] = tested on: p53, p16, and p21; test: Immunoblotting of senescence markers, oxidative stress-induced senescence; type: cell-based, human; conditions: double time H2O2 treated hBM-MSCs, Lico D 1 μg/mL 72 h (FIGS. 3A-3D)
Procedure: as §1
as §2, with “antibodies.” for “antibodies. Subsequently, the membranes were incubated overnight at 4° C. with the corresponding primary antibodies. Secondary antibodies were conjugated with horseradish peroxidase and visualized using an enhanced chemiluminescence detection kit (GE Healthcare).”

[16] = oxidative stress-induced senescent hBM-MSCs, Lico D 1 μg/mL (FIGS. 4A-4D)

SMILES: COc1c(/C=C/C(=O)c2ccc(O)c(CC=C(C)C)c2)ccc(O)c1O [Lico D, Licochalcone D]
- number of SA-β-gal-positive cells [1]: 13%
- expression of autophagy markers (LC3 II, BECN1 and SQSTM1) [2]: markedly increased
- expression levels of p53 and p21, heart ([3]; heart tissue, Lico D 0.5 mg/kg/day i.p. vs D-Gal-injected mice (FIGS. 7A-7C)): significantly reduced
- expression levels of p53 and p21, hippocampus ([3]; hippocampus tissue, Lico D 0.5 mg/kg/day i.p. vs D-Gal-injected mice (FIGS. 7F-7H)): significantly reduced
- intracellular ROS levels [4]: significantly reduced
- AMPK activation (pAMPK/AMPK) ([5]; oxidative stress-induced senescent hBM-MSCs, Lico D 1 μg/mL 72 h (FIGS. 3E, 3F)): significantly restored
- AMPK activation, heart ([6]; heart tissue, Lico D 0.5 mg/kg/day i.p. vs D-Gal treatment (FIGS. 7D, 7E)): significantly increased
- AMPK activation, hippocampus ([6]; hippocampus tissue, Lico D 0.5 mg/kg/day i.p. vs D-Gal treatment (FIGS. 7I, 7J)): significantly increased
- expression levels of LC3 and BECN1 [7, 16]: significantly increased
- expression of SQSTM1 [7, 16]: decreased
- cell viability under H2O2 oxidative stress [8]: significantly increased
- RAGE expression at the mRNA level [9]: significantly reduced
- expression of apoptotic proteins p53 and cleaved caspase 3 [10]: reduced
- anticancer activity [11]: anticancer activity in a dose-dependent manner
- number of times of target platform crossing (MWM) ([12]; Lico D 0.5 mg/kg/day i.p. vs D-Gal treated mouse (FIG. 6C)): tendency of increasing
- escape latency (MWM) ([12]; Lico D 0.5 mg/kg/day i.p. vs D-Gal treated mouse, similar to control (FIG. 6A)): markedly short time
- duration in target quadrant (MWM) ([12]; Lico D 0.5 mg/kg/day i.p. vs D-Gal treated mouse, similar to control (FIG. 6B)): significantly longer time
- body weight [13]: No significant differences
- cell viability [14]: no significant changes in cell viability
- expression of senescence markers p53, p16, and p21 [15]: reduced

SMILES: O=C1O[C@H]([C@@H](O)CO)C(O)=C1O [ascorbic acid, reference compound]
- number of SA-β-gal-positive cells [1]: 17%

SMILES: c1cc(-c2cnn3cc(-c4ccc(OCCN5CCCCC5)cc4)cnc23)ccn1 [CC, reference compound]
- Lico D-mediated AMPK activation upon treatment with CC ([5]; senescent hBM-MSCs, compound C 0.5 μM with Lico D (FIGS. 3E, 3F)): abolished
- AMPK-mediated autophagy upon treatment with CC ([7]; senescent hBM-MSCs, compound C 0.5 μM with Lico D (FIGS. 4A-4D)): inhibited

From US20230190677A1, “PHARMACEUTICAL COMPOSITION FOR PREVENTING OR TREATING AGING-RELATED DISEASES” (INDUSTRY ACADEMIC COOPERATION FOUNDATION CHOSUN UNIVERSITY, priority 2021, published 2023)
